Measurements as given in patent US11123337B2, “4-methylsulfonyl-substituted piperidine urea compounds” (MYOKARDIA, INC., priority 2015, dated 2021).

The compounds below were run against bovine cardiac myosin (Bos taurus, UniProt Q9BE39) (assay: Myosin activation assay (PK/LDH-coupled ATPase, bovine cardiac myofibrils)). Details: AC20 = concentration at which total response is increased by twenty percent.
Format: biochemical
Experimental: Small molecule agents were assessed for their ability to activate the enzymatic activity of bovine cardiac myosin using a biochemical assay that couples the release of ADP (adenosine diphosphate) from cardiac myosin to an enzymatic coupling system consisting of pyruvate kinase and lactate dehydrogenase (PK/LDH) and monitoring the absorbance decrease of NADH (at 340 nm) as a function of time. PK converts ADP to ATP (adenosine triphosphate) by converting PEP (phosphoenolpyruvate) to pyruvate. Pyruvate is then converted to lactate by LDH by converting NADH (nicotinamide adenine dinucleotide) to NAD (oxidized nicotinamide adenine dinucleotide). The source of cardiac myosin was from bovine heart in the form of skinned myofibrils. Prior to testing small molecule agents, the bovine myofibrils were assessed for their calcium responsiveness and the calcium concentration that achieves either a 50% (pCa50 or pCa=˜6) or <5% (pCa=10) activation of the myofibril system was chosen as the final condition for assessing the activation activity of the small molecule agents. All enzymatic activity was measured in a buffered solution containing 12 mM PIPES (piperazine-N,N′-bis(2-ethanesulfonic acid), 2 mM magnesium chloride at pH 6.8 (PM12 buffer). Final assay conditions were 1 mg/mL of bovine cardiac myofibrils, 0.4 mM PK/LDH, 50 uM ATP, 0.1 mg/mL BSA (bovine serum albumin), 10 ppm antifoam, 2 mM BME, 0.5 mM NADH, 1.5 mM PEP at the desired free calcium concentration required to achieve either 50% or <5% activation of the myofibrils.
A dilution series of compound was created in DMSO such that the final desired concentration of compound would be achieved in a volume of […] with a fixed DMSO concentration of 3.3% (v/v). Typically a 1 μL of the dilution series was added to a 384 well plate to achieve a 10 point dose response. Following the addition of 14 μL of a solution containing bovine cardiac myofibrils, PK/LDH and a solution of calcium (that achieved the desired activation), the enzymatic reaction was started with the addition of 15 μL of a solution containing ATP, PEP and NADH. The reaction progress was followed in a PerkinElmer Envision plate reader at ambient temperature using clear bottom plates. The plate reader was configured to read absorbance at 340 nm in kinetics mode for 15 minutes. Data were recorded as the slope of the absorbance response to time. The slopes of the absorbance response as a function of time were normalized to slopes on the plate containing DMSO. This normalized rate was then plotted as a function of small molecule concentration and the data was fitted to a four-parameter fit using EXCEL XLfit. The concentration at which the total response is increased by twenty or fifty percent is reported as AC20 or AC50.

bovine cardiac myosin, sequence (Q9BE39 whole entry): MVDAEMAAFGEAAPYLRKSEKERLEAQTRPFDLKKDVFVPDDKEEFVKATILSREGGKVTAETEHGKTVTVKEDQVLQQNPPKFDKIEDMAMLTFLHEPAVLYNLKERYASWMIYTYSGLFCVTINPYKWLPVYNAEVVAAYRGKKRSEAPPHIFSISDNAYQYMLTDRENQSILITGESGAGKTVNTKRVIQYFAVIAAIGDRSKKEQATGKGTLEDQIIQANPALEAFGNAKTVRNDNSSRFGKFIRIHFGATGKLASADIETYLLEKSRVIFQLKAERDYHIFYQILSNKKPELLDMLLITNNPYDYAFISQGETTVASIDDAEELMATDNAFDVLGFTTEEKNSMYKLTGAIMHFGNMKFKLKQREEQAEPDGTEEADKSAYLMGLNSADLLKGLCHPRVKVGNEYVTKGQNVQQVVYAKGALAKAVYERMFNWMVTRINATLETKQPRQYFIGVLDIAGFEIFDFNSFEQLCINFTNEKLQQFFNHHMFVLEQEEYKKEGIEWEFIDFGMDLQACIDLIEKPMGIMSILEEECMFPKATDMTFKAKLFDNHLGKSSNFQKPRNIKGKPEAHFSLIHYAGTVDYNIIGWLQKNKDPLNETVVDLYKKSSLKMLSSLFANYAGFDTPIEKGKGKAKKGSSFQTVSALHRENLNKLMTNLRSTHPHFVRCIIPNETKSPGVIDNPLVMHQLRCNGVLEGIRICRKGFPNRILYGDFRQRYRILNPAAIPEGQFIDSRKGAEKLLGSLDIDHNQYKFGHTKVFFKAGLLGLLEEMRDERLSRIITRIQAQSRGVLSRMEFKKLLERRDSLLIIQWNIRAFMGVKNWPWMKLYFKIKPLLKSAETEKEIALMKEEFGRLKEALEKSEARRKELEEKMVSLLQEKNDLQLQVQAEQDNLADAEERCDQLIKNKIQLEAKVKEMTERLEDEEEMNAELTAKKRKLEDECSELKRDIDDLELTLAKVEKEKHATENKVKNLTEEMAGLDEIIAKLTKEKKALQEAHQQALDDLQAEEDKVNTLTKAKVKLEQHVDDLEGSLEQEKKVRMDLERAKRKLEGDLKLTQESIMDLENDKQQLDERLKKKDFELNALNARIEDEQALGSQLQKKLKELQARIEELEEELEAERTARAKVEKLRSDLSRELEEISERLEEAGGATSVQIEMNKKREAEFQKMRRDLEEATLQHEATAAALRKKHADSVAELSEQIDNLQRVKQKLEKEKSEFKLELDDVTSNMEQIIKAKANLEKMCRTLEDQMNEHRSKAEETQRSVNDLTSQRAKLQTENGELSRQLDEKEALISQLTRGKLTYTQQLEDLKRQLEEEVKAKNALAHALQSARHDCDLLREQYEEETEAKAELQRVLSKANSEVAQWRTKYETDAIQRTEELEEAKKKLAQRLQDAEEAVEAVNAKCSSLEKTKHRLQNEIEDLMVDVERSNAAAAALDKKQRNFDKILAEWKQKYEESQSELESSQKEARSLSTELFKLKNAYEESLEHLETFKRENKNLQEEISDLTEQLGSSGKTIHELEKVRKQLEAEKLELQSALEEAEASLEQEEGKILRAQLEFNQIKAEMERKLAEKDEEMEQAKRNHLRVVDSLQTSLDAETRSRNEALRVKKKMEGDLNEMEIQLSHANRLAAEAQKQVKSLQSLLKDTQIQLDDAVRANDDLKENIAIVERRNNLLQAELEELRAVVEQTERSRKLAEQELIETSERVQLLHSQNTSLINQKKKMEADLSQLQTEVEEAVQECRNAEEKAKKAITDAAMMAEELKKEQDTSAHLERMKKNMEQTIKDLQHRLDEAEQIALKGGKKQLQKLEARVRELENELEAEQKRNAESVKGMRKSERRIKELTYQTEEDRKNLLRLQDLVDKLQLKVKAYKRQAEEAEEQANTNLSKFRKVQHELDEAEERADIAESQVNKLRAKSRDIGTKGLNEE
bovine cardiac myosin, sequence (P85100 whole entry partner): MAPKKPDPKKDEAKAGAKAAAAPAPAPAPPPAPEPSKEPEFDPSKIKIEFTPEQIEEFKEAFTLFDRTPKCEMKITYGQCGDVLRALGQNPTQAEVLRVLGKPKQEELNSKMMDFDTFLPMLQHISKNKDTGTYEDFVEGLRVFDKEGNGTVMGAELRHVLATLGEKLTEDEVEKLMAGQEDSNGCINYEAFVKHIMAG
bovine cardiac myosin, sequence (Q3SZE5 whole entry partner): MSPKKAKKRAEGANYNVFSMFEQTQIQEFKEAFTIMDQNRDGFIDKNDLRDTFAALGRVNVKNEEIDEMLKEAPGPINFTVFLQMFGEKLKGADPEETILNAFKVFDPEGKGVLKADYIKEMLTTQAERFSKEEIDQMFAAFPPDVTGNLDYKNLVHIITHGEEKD

Structure (SMILES)	Myosin Activation (AC20)
Cn1nccc1-c1ccc(S(=O)(=O)C(F)(F)C2CCN(C(=O)Nc3ccnnc3)CC2)cc1 [Compound 58, 4-(difluoro((4-(1-methyl-1H-pyrazol-5-yl)phenyl)sulfonyl)methyl)-N-(pyridazin-4-yl)piperidine-1-carboxamide]	+ (+ represents myosin activation value AC20 > 5 μM)
Cn1nc(C(F)(F)F)cc1S(=O)(=O)C(C)(F)C1CCN(C(=O)Nc2ccnnc2)CC1 (stereo not drawn) [Compound 277, 4-(1-fluoro-1-((1-methyl-3-(trifluoromethyl)-1H-pyrazol-5-yl)sulfonyl)ethyl)-N-(pyridazin-4-yl)piperidine-1-carboxamide]	+++ (+++ represents myosin activation value AC20 < 2 μM)
Cc1ccc(S(=O)(=O)C(F)(F)C2CCN(C(=O)Nc3ccnnc3)CC2)cn1 [Compound 50, 4-(difluoro((6-methylpyridin-3-yl)sulfonyl)methyl)-N-(pyridazin-4-yl)piperidine-1-carboxamide]	++ (++ represents myosin activation value AC20 from 2 μM-5 μM)
Cn1cc(S(=O)(=O)C(C)(C)C2CCN(C(=O)Nc3nnco3)CC2)c(C(F)F)n1 [Compound 145, 4-(2-((3-(difluoromethyl)-1-methyl-1H-pyrazol-4-yl)sulfonyl)propan-2-yl)-N-(1,3,4-oxadiazol-2-yl)piperidine-1-carboxamide]	+ (+ represents myosin activation value AC20 > 5 μM)
CC(C)(C1CCN(C(=O)Nc2ccc(F)nc2)CC1)S(=O)(=O)c1cccc(F)c1 [Compound 152, 4-(2-((3-fluorophenyl)sulfonyl)propan-2-yl)-N-(6-fluoropyridin-3-yl)piperidine-1-carboxamide]	++ (++ represents myosin activation value AC20 from 2 μM-5 μM)
O=C(Nc1ccnnc1)N1CCC(C(F)(F)S(=O)(=O)c2ccc(OC(F)(F)F)cc2)CC1 [Compound 48, 4-(difluoro((4-(trifluoromethoxy)phenyl)sulfonyl)methyl)-N-(pyridazin-4-yl)piperidine-1-carboxamide]	++ (++ represents myosin activation value AC20 from 2 μM-5 μM)
O=C(Nc1ccnnc1)N1CCC(C(F)(F)S(=O)(=O)c2ccc(N3CCC3)nc2)CC1 [Compound 67, 4-(((6-(azetidin-1-yl)pyridin-3-yl)sulfonyl)difluoromethyl)-N-(pyridazin-4-yl)piperidine-1-carboxamide]	++ (++ represents myosin activation value AC20 from 2 μM-5 μM)
Cn1nccc1S(=O)(=O)C(C)(C)C1CCN(C(=O)Nc2ccc(F)nc2)CC1 [Compound 124, N-(6-fluoropyridin-3-yl)-4-(2-((1-methyl-1H-pyrazol-5-yl)sulfonyl)propan-2-yl)piperidine-1-carboxamide]	+ (+ represents myosin activation value AC20 > 5 μM)
COc1ccccc1S(=O)(=O)C(C)(F)C1CCN(C(=O)Nc2ccnnc2)CC1 (stereo not drawn) [Compound 273, 4-(1-fluoro-1-((2-methoxyphenyl)sulfonyl)ethyl)-N-(pyridazin-4-yl)piperidine-1-carboxamide]	++ (++ represents myosin activation value AC20 from 2 μM-5 μM)
CC(C)(C1CCN(C(=O)Nc2ccnnc2)CC1)S(=O)(=O)c1cc(F)cc(F)c1 [Compound 169, 4-(2-((3,5-difluorophenyl)sulfonyl)propan-2-yl)-N-(pyridazin-4-yl)piperidine-1-carboxamide]	+++ (+++ represents myosin activation value AC20 < 2 μM)
CC(C)(C1CCN(C(=O)Nc2ccnc(F)c2)CC1)S(=O)(=O)c1cccc(F)c1 [Compound 151, 4-(2-((3-fluorophenyl)sulfonyl)propan-2-yl)-N-(2-fluoropyridin-4-yl)piperidine-1-carboxamide]	++ (++ represents myosin activation value AC20 from 2 μM-5 μM)
Cn1nc(C(F)F)cc1S(=O)(=O)C(C)(C)C1CCN(C(=O)Nc2ccnnc2)CC1 [Compound 122, 4-(2-((3-(difluoromethyl)-1-methyl-1H-pyrazol-5-yl)sulfonyl)propan-2-yl)-N-(pyridazin-4-yl)piperidine-1-carboxamide]	+++ (+++ represents myosin activation value AC20 < 2 μM)
